The text below walks through data of patent US20110184178A1, “POLYMORPHS OF 5-(3-(ETHYLSULFONYL)PHENYL)-3,8-DIMETHYL-N-(1-METHYLPIPERIDIN-4-YL)-9H-PYRIDO[2,3-B]INDOLE-7-CARBOXAMIDE AND METHODS OF USE THEREFOR” (Takeda Pharmaceutical Company Limited, priority 2008, published 2011).

Common to all, as to format: physicochemical
Data set [1] in a line: Solubility study of Form A in de-ionized water and 20 mM phosphate buffer at pH 3.2 (HPLC, XRPD of solids). The settings on record: for solubility at 1 week: ambient temperature, read-out: Solubility mg/mL (1 week); for solubility at 1 day: read-out: Solubility mg/mL (1 day). How it is done: Solubility was determined for Form A of Compound I by suspending the material in de-ionized water and 20 mM phosphate buffer at pH 3.2 and ambient temperature. Approximately 40 mg of Form A of Compound I was charged to 2-dram amber vials equipped with magnetic stir bars, followed by the addition of DI water or phosphate buffer (2.0 mL) in one portion. The samples were allowed to equilibrate with stirring for 16 h, followed by centrifugation. An aliquot of the supernatant liquid was analyzed by HPLC, and the solids isolated by filtration and dried under vacuum at ambient temperature for analysis by XRPD. Samples were allowed to stir for an additional 6 days and concentration determined by HPLC.

The nature of data set [2]: Moisture-sorption analysis (gravimetric adsorption/desorption, 25° C.). How it is done: Further, the material gained enough water to form the dihydrate in approximately 45 minutes at 30% RH during adsorption and lost enough water to form the anhydrate at 15% RH during desorption in less than 60 minutes. […] The sample was further allowed to equilibrate at ambient laboratory conditions overnight and reanalyzed by XRPD. […] The moisture sorption experiment of Form C of Compound I provides a curve similar to the Form A curve (FIG. 11). […] Further, the material gained enough water to form the dihydrate in less than 60 minutes at 30% RH during adsorption and lost enough water to form the anhydrate at 15% RH during desorption in approximately 80 minutes. […] Moisture-sorption experiments were carried out on all samples by first drying the sample at 0% RH and 25° C. until an equilibrium weight was reached or for a maximum of four hours. The sample was then subjected to an isothermal (25° C.) adsorption scan from 10 to 90% RH in steps of 10%. Samples were then allowed to equilibrate to an asymptotic weight at each point for a maximum of four hours. Following adsorption, a desorption scan from 85 to 0% RH (at 25° C.) was run in steps of −10% again allowing a maximum of four hours for equilibration to an asymptotic weight. Samples were dried for one hour at 80° C. and the resulting solids analyzed by XRPD.

Data set [3] is described as follows: Humidity chamber study of Form A (XRPD, Karl Fischer). The settings on record: ambient temperature and 0% RH for one week. From the text:
A sample of Form A was exposed to ambient temperature and 0% RH for one week.

Data set [4] is described as follows: Slurry experiments (form by XRPD after slurrying in a solvent). Particulars: Form A in dioxane slurry. How it is done:
50 to 60 mg of Form A of Compound I was weighed out into 2 dram amber vials and the material was slurried in 2 mL of a solvent. The slurry experiments were carried out at either ambient temperature or at 40° C. Samples were obtained from slurries after one day, one week, and two weeks. Tables 15 and 16 detail the results of the slurry experiments.

A short description of data set [5]: DSC heat-cool experiments with isothermal holds to isolate high-melt forms. How it is done:
Differential scanning calorimetry (DSC) analyses were carried out on samples weighed in an aluminum pan, covered with a pierced lid, and then crimped. Analysis conditions were 30° C. to 300-350° C. ramped at 10° C./min. Samples were subjected to heat-cool-heat experiments to determine if a unique form or interconversion could be observed. Compound I was prepared by thoroughly mixing Form A lots with stirring by spatula and tumbling the powders for several minutes in a scintillation vial. Experiments were setup as described in Tables 17 and 18 with isothermal holds for five minutes at temperatures slightly below/above the observed transitions to encourage conversion/ripening. Similarly, controlled cooling profiles (−5° C./min) were used to help promote crystal growth as opposed to quench cooling which may result in amorphous or kinetically favored forms instead of the stable form.

The nature of data set [6]: Physical characterization of the polymorphs and salt (XRPD, DSC, TGA, 1H-NMR, KF, moisture sorption): stability assessment. The settings on record: solid form. How it is done:
Described herein are Form A, Form B, Form C, Form D, Form E, Form F and Form G of Compound I. Various tests were performed in order to physically characterize the polymorphs of Compound I, including X-ray powder diffraction (XRPD), differential scanning calorimetry (DSC), thermogravimetric analysis (TGA), solution proton nuclear magnetic resonance (^1H-NMR), and moisture sorption and desorption analysis (M S/Des). Detailed experimental conditions for each of the analytical techniques are described in the Examples section. […] A summary of these experiments and the results are presented below and in Table 12.

Where [7] appears, read: solids isolated from DI water suspension.
Where [8] appears, read: solids isolated from phosphate buffer suspension, pH 3.2.
Where [9] appears, read: 30-280° C. @ 10° C./min, hold 280° C. for 5 min, 280-30° C. @ -5° C./min.
[10] abbreviates: 30-290° C. @ 10° C./min, hold 290° C. for 5 min, 290-30° C. @ -5° C./min.

Read-outs that look alike come from different tables or passages of the source.

Take `CCS(=O)(=O)c1cccc(-c2cc(C(=O)NC3CCN(C)CC3)c(C)c3[nH]c4ncc(C)cc4c23)c1` [Compound I Form A, 5-(3-(ethylsulfonyl)phenyl)-3,8-dimethyl-N-(1-methylpiperidin-4-yl)-9H-pyrido[2,3-b]indole-7-carboxamide]: the “pH, 1 week” value was 7.2 in data set [1] (DI water suspension, pH (initial) 6.9) and 3.4 in data set [1] (Phosphate buffer suspension, pH (initial) 3.2). Besides, the solubility at 1 week is below 0.1 mg/mL in data set [1] (aqueous buffer, thermodynamic from solid, Phosphate buffer (20 mM), pH (initial) 3.2, pH 3.4 at 1 week) and below 0.1 mg/mL in data set [1] (de-ionized water, thermodynamic from solid, DI water, pH (initial) 6.9, pH 7.2 at 1 week). The solubility at 1 day was below 0.1 mg/mL in data set [1] (de-ionized water, pH 6.9, thermodynamic from solid, DI water, pH (initial) 6.9, ambient temperature) and below 0.1 mg/mL in data set [1] (pH 3.2, aqueous buffer, thermodynamic from solid, Phosphate buffer (20 mM), pH (initial) 3.2, ambient temperature). For the same compound, the “XRPD (1 week)” value in data set [1] (setting [7]) and in data set [1] (setting [8]) was “Form A” each time. The “XRPD (1 day)” value in data set [1] (setting [7]) and in data set [1] (setting [8]) was “Form A” throughout. Also, the “XRPD analysis of the solid following the desorption scan” value in data set [2] is reported as “consistent with Form C”. Also, the “time to lose enough water to form the anhydrate” value in data set [2] (at 15% RH during desorption) was “less than 60 minutes”. Besides, the “time to gain enough water to form the dihydrate” value in data set [2] (at 30% RH during adsorption) was “approximately 45 minutes”. Further, the “hydration state in the moisture sorption experiment” value in data set [2] (during both adsorption and desorption, 25° C.) is on record as “stable dihydrate above 20% RH”. Also, the “XRPD after equilibration at ambient laboratory conditions overnight” value in data set [2] (sample after desorption scan) was “re-converted to Form A”. Moreover, the “Karl Fischer (KF) analysis results before and after the one week equilibration” value in data set [3] is reported as “comparable”. In data set [3], the “XRPD after one week in humidity chamber” value is listed as “consistent with Form A”. For the same compound, the “XRPD pattern of dioxane slurry” value in data set [4] is “mixture of Form A and Form D”. Further, the “1H NMR (degradation)” value in data set [5] (setting [9]) and in data set [5] (setting [10]) was “No degradation” throughout. Moreover, the XRPD entry is given as “Form F” in data set [5] (setting [9]) and “Form G” in data set [5] (setting [10]). The “stability (based on the available characterization data)” value in data set [6] is reported as “stable at ambient conditions”.
